The values that follow come from patent US7981903B2, “2-[2-{phenylamino}-1H-pyrrolo[2,3-D]pyrimidin-4-yl)amino] benzamide derivatives as IGF-1R inhibitors for the treatment of cancer” (GlaxoSmithKline LLC, priority 2007, dated 2011).

One assay deals with T1, human IGF1R (hIGF1R) (Homo sapiens, UniProt P08069).
T1 construct: containing amino acid residues 957-1367 of human IGF1R; made in house; host or cells: Sf9 cells (baculovirus)
Briefly: TR-FRET kinase assay of purified hIGF1R. It is filed as biochemical. As to conditions: activated hIGF1R 0.5 nM, 10 μM ATP, values given as pIC50 category, read-out: IGF-1R pIC50 (converted). On the technique in general: TR-FRET usually uses a lanthanide donor and a delayed reading to cut background.

A further assay deals with T2, human IR (hIR) (Homo sapiens, UniProt P06213).
T2 construct: containing amino acid residues 979-1382 of human IR; made in house; host or cells: Sf9 cells (baculovirus), same process as hIGF1R
T2 sequence (P06213 979-1382): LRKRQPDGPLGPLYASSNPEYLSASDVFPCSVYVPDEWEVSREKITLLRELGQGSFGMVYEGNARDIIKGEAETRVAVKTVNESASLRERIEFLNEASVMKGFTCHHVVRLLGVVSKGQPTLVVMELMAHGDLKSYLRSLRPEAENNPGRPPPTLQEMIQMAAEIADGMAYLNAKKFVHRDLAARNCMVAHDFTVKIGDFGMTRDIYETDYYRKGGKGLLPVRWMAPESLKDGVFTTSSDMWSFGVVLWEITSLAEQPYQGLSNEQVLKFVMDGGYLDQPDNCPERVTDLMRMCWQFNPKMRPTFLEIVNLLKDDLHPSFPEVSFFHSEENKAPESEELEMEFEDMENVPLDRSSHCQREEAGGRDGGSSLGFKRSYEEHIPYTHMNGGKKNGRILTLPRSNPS
Briefly: TR-FRET kinase assay of purified hIR. It is filed as biochemical. The following applies: activated hIR 0.5 nM, 10 μM ATP, values given as pIC50 category.

Assay [1] concerns the target T3, NIH-3T3 cells overexpressing human IR (Homo sapiens, UniProt P06213).
T3 construct: expressed in transfected cells; host or cells: NIH-3T3 (mouse fibroblasts)
Briefly: IR cellular autophosphorylation (DELFIA). Type of assay: cell-based. The following applies: 2 h compound, insulin 3 ug/ml for 15 minutes, IC50 category. A digest of the protocol: (§1)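 Receptor autophosphorylation measured by DELFIA, capturing IGF-1R or IRβ and detecting with europium anti-pTyr, reported as percent of IGF-1- or insulin-stimulated signal. Compounds (30 uM to 1.5 nM) added 2 h before ligand, then 15 min stimulation (IGF-1 30 ng/ml or insulin 3 ug/ml).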

Assay [2] concerns the target T4, NIH-3T3 cells overexpressing human IGF-1R (Homo sapiens, UniProt P08069).
T4 construct: expressed in transfected cells; host or cells: NIH-3T3 (mouse fibroblasts)
Briefly: IGF-1R cellular autophosphorylation (DELFIA). Type of assay: cell-based. In outline: as §1

T4 sequence (P08069 31-1367): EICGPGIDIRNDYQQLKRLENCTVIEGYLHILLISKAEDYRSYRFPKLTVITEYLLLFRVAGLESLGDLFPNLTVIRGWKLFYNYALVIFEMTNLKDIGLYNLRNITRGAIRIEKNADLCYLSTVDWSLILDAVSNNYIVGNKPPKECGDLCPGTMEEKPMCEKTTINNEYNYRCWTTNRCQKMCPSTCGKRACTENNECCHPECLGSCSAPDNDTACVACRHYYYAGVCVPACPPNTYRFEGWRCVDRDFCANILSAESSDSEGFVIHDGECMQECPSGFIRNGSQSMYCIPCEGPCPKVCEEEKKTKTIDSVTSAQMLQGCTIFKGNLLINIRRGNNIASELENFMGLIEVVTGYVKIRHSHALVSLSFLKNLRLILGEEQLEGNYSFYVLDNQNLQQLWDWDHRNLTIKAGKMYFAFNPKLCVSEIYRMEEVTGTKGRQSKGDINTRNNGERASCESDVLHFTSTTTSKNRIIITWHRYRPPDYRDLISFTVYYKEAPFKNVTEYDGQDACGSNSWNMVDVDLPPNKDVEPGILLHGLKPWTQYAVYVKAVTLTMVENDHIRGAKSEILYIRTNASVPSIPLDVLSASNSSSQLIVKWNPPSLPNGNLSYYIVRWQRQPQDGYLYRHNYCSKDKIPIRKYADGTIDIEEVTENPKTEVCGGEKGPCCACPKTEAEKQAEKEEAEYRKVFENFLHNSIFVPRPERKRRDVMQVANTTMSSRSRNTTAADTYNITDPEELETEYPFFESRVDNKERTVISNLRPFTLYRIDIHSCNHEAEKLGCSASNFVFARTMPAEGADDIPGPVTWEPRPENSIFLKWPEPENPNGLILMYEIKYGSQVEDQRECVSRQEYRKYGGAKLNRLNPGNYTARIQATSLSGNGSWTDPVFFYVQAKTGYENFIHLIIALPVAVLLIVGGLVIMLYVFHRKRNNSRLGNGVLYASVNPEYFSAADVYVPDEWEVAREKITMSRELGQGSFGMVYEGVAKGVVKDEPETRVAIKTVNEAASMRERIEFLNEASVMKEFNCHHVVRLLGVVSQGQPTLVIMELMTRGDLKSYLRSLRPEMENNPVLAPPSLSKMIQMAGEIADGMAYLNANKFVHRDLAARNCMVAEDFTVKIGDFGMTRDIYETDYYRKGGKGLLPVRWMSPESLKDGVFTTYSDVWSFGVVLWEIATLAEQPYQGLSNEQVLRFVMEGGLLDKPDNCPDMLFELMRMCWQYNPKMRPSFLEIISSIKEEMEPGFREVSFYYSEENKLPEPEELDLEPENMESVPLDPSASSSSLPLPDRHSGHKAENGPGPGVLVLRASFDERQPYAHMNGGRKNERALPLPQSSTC
T3 sequence (P06213 28-1382): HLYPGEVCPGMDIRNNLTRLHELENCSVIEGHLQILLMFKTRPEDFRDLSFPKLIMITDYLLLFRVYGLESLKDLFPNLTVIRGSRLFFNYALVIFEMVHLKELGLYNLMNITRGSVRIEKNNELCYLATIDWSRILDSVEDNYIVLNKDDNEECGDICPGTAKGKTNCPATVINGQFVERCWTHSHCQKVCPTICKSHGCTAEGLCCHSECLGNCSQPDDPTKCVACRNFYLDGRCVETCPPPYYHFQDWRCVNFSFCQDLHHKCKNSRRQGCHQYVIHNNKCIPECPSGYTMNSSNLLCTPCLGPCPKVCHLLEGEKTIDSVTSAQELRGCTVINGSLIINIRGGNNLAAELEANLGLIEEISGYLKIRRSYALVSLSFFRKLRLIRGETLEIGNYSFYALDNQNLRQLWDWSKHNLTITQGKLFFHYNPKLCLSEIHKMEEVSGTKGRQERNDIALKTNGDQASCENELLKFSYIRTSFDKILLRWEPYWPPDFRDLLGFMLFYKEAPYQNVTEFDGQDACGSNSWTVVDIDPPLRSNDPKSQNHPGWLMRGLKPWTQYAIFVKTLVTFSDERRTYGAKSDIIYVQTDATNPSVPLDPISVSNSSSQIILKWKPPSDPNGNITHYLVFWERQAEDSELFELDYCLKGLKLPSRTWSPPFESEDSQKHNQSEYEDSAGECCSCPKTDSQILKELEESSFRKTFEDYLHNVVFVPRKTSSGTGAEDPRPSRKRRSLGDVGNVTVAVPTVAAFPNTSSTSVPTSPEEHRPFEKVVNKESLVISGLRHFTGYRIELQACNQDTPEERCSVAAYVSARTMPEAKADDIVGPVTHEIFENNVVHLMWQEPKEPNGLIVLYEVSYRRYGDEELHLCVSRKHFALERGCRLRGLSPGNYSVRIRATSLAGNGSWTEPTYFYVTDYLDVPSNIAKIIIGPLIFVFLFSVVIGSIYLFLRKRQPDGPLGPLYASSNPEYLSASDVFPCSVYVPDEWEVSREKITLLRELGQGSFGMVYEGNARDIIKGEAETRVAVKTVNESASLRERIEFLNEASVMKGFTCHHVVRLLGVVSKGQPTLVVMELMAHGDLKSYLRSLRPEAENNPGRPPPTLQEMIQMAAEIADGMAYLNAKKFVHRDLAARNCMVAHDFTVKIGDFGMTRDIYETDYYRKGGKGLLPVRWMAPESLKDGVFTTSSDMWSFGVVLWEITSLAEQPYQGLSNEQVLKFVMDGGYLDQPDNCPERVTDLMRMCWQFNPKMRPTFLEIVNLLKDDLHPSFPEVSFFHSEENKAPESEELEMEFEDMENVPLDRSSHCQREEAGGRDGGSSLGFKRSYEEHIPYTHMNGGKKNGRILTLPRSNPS
T1 sequence (P08069 957-1367): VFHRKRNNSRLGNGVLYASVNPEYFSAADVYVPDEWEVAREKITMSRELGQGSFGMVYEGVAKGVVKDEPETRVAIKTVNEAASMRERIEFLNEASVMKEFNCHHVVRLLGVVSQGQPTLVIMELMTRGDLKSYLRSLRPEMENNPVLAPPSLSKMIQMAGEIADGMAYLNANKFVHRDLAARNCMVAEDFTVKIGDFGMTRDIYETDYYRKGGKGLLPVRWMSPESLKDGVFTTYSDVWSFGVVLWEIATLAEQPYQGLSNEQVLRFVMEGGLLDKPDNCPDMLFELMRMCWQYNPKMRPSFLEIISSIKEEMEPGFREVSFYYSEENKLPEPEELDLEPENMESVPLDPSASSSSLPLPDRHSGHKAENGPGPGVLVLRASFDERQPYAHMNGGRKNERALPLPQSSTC

For the compound `COc1cc2c(cc1Nc1nc(Nc3cccc(F)c3C(N)=O)c3cc[nH]c3n1)N(C(=O)N(C)C)CC2` [Example 146, 6-[(4-{[2-(aminocarbonyl)-3-fluorophenyl]amino}-1H-pyrrolo[2,3-d]pyrimidin-2-yl)amino]-N,N-dimethyl-5-(methyloxy)-2,3-dihydro-1H-indole-1-carboxamide], the IC50 at human IGF1R (hIGF1R) is 5.01 to 200 nM; at human IR (hIR), 5.01 to 158 nM; in assay [1] it was greater than 500 nM; in assay [2], greater than 500 nM.

`CNC(=O)c1c(F)cc(F)cc1Nc1nc(Nc2cc3c(cc2OC)CCN3C(=O)CN(C)C)nc2[nH]ccc12` [Example 190, 2-[(2-{[1-(N,N-dimethylglycyl)-5-(methyloxy)-2,3-dihydro-1H-indol-6-yl]amino}-1H-pyrrolo[2,3-d]pyrimidin-4-yl)amino]-4,6-difluoro-N-methylbenzamide]: the IC50 is 0.251 to 1 nM at human IGF1R (hIGF1R), 0.251 to 1 nM on human IR (hIR), less than 100 nM in assay [1] and less than 100 nM in assay [2].

`COc1cc2c(cc1Nc1nc(Nc3cccc(F)c3C(N)=O)c3cc[nH]c3n1)NCCC2` [Example 211, 2-fluoro-6-[(2-{[6-(methyloxy)-1,2,3,4-tetrahydro-7-quinolinyl]amino}-1H-pyrrolo[2,3-d]pyrimidin-4-yl)amino]benzamide]: the IC50 at human IGF1R (hIGF1R) was 5.01 to 200 nM; against human IR (hIR) it was 5.01 to 158 nM; in assay [1], greater than 500 nM; in assay [2] it was greater than 500 nM.

With `COc1cc(OCCN2CCN(C)CC2)ccc1Nc1nc(Nc2cccc(F)c2C(N)=O)c2cc[nH]c2n1` [Example 203, 2-fluoro-6-({2-[(2-(methyloxy)-4-{[2-(4-methyl-1-piperazinyl)ethyl]oxy}phenyl)amino]-1H-pyrrolo[2,3-d]pyrimidin-4-yl}amino)benzamide], the IC50 at human IGF1R (hIGF1R) is 5.01 to 200 nM; against human IR (hIR), 1.26 to 3.98 nM; in assay [1], less than 100 nM; in assay [2], 100 to 500 nM.
